Measurements from patent publication US9695119B2, “Methionine analogs and methods of using same” (Bioxiness Pharmaceuticals, Inc., priority 2008, dated 2017).
Read-outs that look alike come from different tables or passages of the source.

Assays:
L929 cells = conditions: mouse, 60 min
Method: Cytotoxicity is assessed by a colorimetric assay system (Sagripanti J-L, Bonifacino A. Cytotoxicity of Liquid Disinfectants. Surgical Infections, 2000; 1(1): 3-14, the content of which is hereby incorporated by reference, particularly with respect to the experimental methods described therein), using 3′-(phenylamino-carbonyl)-3,4-tetrazo-lium-bis(4-methoxy-6-nitro) benzene sulfonic acid hydrate (XTT), ProCheck™ cell viability assay (Evaluation of a soluble tetrazolium/formazan assay for cell growth and drug sensitivity in culture using human and other tumor cell lines described by Scudiero D A, Shoemaker R A H, Paul K D, Monks A, Tierney S, Nofziger T H, Currens M J, Seniff D, Boyd M R. Cancer Res. 1988 Sep. 1; 48(17):4827-33, the content of which is hereby incorporated by reference, particularly with respect to the experimental methods described therein). Similar approaches for determining the cell viability are used by other investigators. Three cell types are used: […] (L929), primary human skin fibroblast and primary human keratinocyte cells cultured in Dulbecco Modified Eagle's Medium and Keratinocyte defined medium with corresponding growth factors plus antibiotics. Cells are trypsinized and counted under the microscope and seeded at 1000-to-2000 cells per well of a flat-bottom 96-well plate. Cells are allowed to grow overnight at 37° C. Tissue culture media is removed the following day and cells are rinsed with fresh media 1× and then left in 50 μL of tissue culture media. Test articles are prepared as 2-fold dilutions and 200 μL is added into each set of 4-wells (total volume per well is 250 μL). Cells are exposed to test articles for 60 min at room temperature. Immediately after the exposed time, test article from each well is removed and cells are fed with 250 μL of fresh media. Plates are incubated at 37° C. for 18-20 hr. The following day media is removed again and replaced with 100 μL/well of fresh media containing 10/100 μL XTT-reagent. Cells are incubated under growth conditions (5% CO2 at 37° C. humidified incubator), protected from light, until color development is achieved. Absorbance is read at 450 nm with reference wavelength at 750 nm using Molecular Device ThermoMax Plate reader, blanking the plate on the medium-only assay blank wells. Untreated cells receiving XTT reagents-only serve as positive cell proliferation control.
(§1) Results are expressed as percentage of cells surviving the treatment as compared to PBS.

Ps. sturtzeri = assay: Broad spectrum bacterial growth inhibition, 96-well plate, M9 media; assay type: cell-based
Method: (§2) Table 2 and FIG. 2 summarizes a series of studies, which were performed to test eradication of bacterial growth using various species (representative strains of gram positive and gram negative microorganisms commonly associated with wound infection). A 96-well plate format was used to culture different bacteria in M9 minimal media supplemented with glucose (M9) or same media supplemented with a range of concentrations of various analogues (Methionine, I-AA and I-AB). Experiments were carried out in duplicate.

[1] = tested on: test bacteria (gram positive and gram negative microorganisms commonly associated with wound infection); assay: Broad spectrum bacterial growth inhibition, all test species together; assay type: cell-based; conditions: different bacteria in M9 minimal media
Method: as §2

[2] = tested on: CV-1 (African Green Monkey Kidney Cells) cells; conditions: 60 min, pH 7
Method: Preliminary studies of cytotoxicity were performed in a mammalian cell viability assay.
CV-1 cells were propagated in DMEM plus 8% FBS according to supplier's recommendations. CV-1 cells were seeded at 1.5×10^4 cells per well in 96-well plates and incubated overnight at 37° C. On the day of testing, growth medium was aspirated from each well, and 20 μl fresh medium was added per well. Test articles were diluted from 50 mM to 0.05 mM by 2-fold serial dilution using PBS at pH 7.0 for each test article. After which 80 μl of each dilution was added to each well for a total volume of 100 μl per well. Following 60 minutes exposure at 37° C., test articles were aspirated and replaced with fresh 100 μl tissue culture media and incubated for 24 hours at 37° C. Next day cell culture media was removed and cell viability was determined by addition of WST-8 (Dojindo, Japan) reagent and the absorption at 450 nm read spectrophotometrically. Orange-red formazan, which is produced by live cells, is a direct measure of cell viability in this assay.
as §1

E. coli (DH5-α) = assay: MBC spot inoculation onto gridded agar plate (growth or no growth); assay type: cell-based; conditions: spot inoculation from well 12, 11 and 10
Method: MBC was determined by plating 5 μL of each sample onto a gridded agar plate (see, for example, FIG. 1B). Plates were then incubated overnight at 37° C., and examined for growth or no growth. The concentration at which there was a complete absence of colony growth was determined to be the MBC. For FIGS. 1A and 1B, the 96-well plate format was used to culture E. coli (DH5-α) cells in M9 minimal media supplemented with glucose (M9) or same media supplemented with a range of concentrations of various analogs. Experiments were carried out in duplicate.

B. subtillus = assay: Broad spectrum bacterial growth inhibition, 96-well plate, M9 media; assay type: cell-based; set-up: unit not given here
Method: as §2

E. coli = assay: as above; assay type: cell-based; set-up: unit not given here
Method: as §2

P. aeruginosa = assay: as above; assay type: cell-based; set-up: unit not given here
Method: as §2

CSCC[C@H](NC(=O)CN)C(=O)NO.Cl [I-AB, (S)-2-(2-aminoacetamido)-N-hydroxy-4-(methylthio)butanamide hydrochloride]
Percentage of Surviving L929 cells relative to control (L929 cells; 0.1 mM): 99%
Percentage of Surviving L929 cells relative to control (L929 cells; 0.2 mM): 92%
Percentage of Surviving L929 cells relative to control (L929 cells; 0.39 mM): 88%
Percentage of Surviving L929 cells relative to control (L929 cells; 0.78 mM): 90%
Percentage of Surviving L929 cells relative to control (L929 cells; 1.56 mM): 89%
Percentage of Surviving L929 cells relative to control (L929 cells; 3.13 mM): 86%
Percentage of Surviving L929 cells relative to control (L929 cells; 6.25 mM): 88%
Percentage of Surviving L929 cells relative to control (L929 cells; 12.5 mM): 89%
Percentage of Surviving L929 cells relative to control (L929 cells; 25 mM): 92%
Percentage of Surviving L929 cells relative to control (L929 cells; 50 mM): 75%
Broad Spectrum Bacterial Growth Inhibition Data, Ps. sturtzeri (Ps. sturtzeri; Conc. 0.0, well 4, M9 media): 0.5
Broad Spectrum Bacterial Growth Inhibition Data, Ps. sturtzeri (Ps. sturtzeri; Conc. 0.1, well 5, M9 media): 0.5
Broad Spectrum Bacterial Growth Inhibition Data, Ps. sturtzeri (Ps. sturtzeri; Conc. 0.2, well 6, M9 media): 0.3
Broad Spectrum Bacterial Growth Inhibition Data, Ps. sturtzeri (Ps. sturtzeri; Conc. 0.4, well 7, M9 media): 0.3
Broad Spectrum Bacterial Growth Inhibition Data, Ps. sturtzeri (Ps. sturtzeri; Conc. 0.8, well 8, M9 media): 0.2
Broad Spectrum Bacterial Growth Inhibition Data, Ps. sturtzeri (Ps. sturtzeri; Conc. 1.6, well 9, M9 media): 0.2
Broad Spectrum Bacterial Growth Inhibition Data, Ps. sturtzeri (Ps. sturtzeri; Conc. 3.1, well 10, M9 media): 0.2
Broad Spectrum Bacterial Growth Inhibition Data, Ps. sturtzeri (Ps. sturtzeri; Conc. 6.3, well 11, M9 media): 0.2
Broad Spectrum Bacterial Growth Inhibition Data, Ps. sturtzeri (Ps. sturtzeri; Conc. 12.5, well 12, M9 media): 0.2
Concentration dependence of bacterial growth inhibition [1]: concentration-dependent
Time within which most bacteria were killed [1]: ≤ 24 h
Percentage of Surviving CV-1 cells relative to PBS ([2]; 0.1 mM): 97%
Percentage of Surviving CV-1 cells relative to PBS ([2]; 0.2 mM): 94%
Percentage of Surviving CV-1 cells relative to PBS ([2]; 0.39 mM): 97%
Percentage of Surviving CV-1 cells relative to PBS ([2]; 0.78 mM): 97%
Percentage of Surviving CV-1 cells relative to PBS ([2]; 1.56 mM): 98%
Percentage of Surviving CV-1 cells relative to PBS ([2]; 3.13 mM): 100%
Percentage of Surviving CV-1 cells relative to PBS ([2]; 6.25 mM): 100%
Percentage of Surviving CV-1 cells relative to PBS ([2]; 12.5 mM): 101%
Percentage of Surviving CV-1 cells relative to PBS ([2]; 25 mM): 100%
Percentage of Surviving CV-1 cells relative to PBS ([2]; 50 mM): 60%
Re-growth after spot inoculation on agar plate (E. coli (DH5-α)): absence of re-growth
Broad Spectrum Bacterial Growth Inhibition Data, B. subtillus (B. subtillus; Conc. 0.0, well 4, M9 media): 0.5
Broad Spectrum Bacterial Growth Inhibition Data, B. subtillus (B. subtillus; Conc. 0.1, well 5, M9 media): 0.5
Broad Spectrum Bacterial Growth Inhibition Data, B. subtillus (B. subtillus; Conc. 0.2, well 6, M9 media): 0.4
Broad Spectrum Bacterial Growth Inhibition Data, B. subtillus (B. subtillus; Conc. 0.4, well 7, M9 media): 0.4
Broad Spectrum Bacterial Growth Inhibition Data, B. subtillus (B. subtillus; Conc. 0.8, well 8, M9 media): 0.2
Broad Spectrum Bacterial Growth Inhibition Data, B. subtillus (B. subtillus; Conc. 1.6, well 9, M9 media): 0.2
Broad Spectrum Bacterial Growth Inhibition Data, B. subtillus (B. subtillus; Conc. 3.1, well 10, M9 media): 0.2
Broad Spectrum Bacterial Growth Inhibition Data, B. subtillus (B. subtillus; Conc. 6.3, well 11, M9 media): 0.2
Broad Spectrum Bacterial Growth Inhibition Data, B. subtillus (B. subtillus; Conc. 12.5, well 12, M9 media): 0.2
Broad Spectrum Bacterial Growth Inhibition Data, E. coli (E. coli; Conc. 0.0, well 4, M9 media): 0.4
Broad Spectrum Bacterial Growth Inhibition Data, E. coli (E. coli; Conc. 0.1, well 5, M9 media): 0.4
Broad Spectrum Bacterial Growth Inhibition Data, E. coli (E. coli; Conc. 0.2, well 6, M9 media): 0.4
Broad Spectrum Bacterial Growth Inhibition Data, E. coli (E. coli; Conc. 0.4, well 7, M9 media): 0.4
Broad Spectrum Bacterial Growth Inhibition Data, E. coli (E. coli; Conc. 0.8, well 8, M9 media): 0.5
Broad Spectrum Bacterial Growth Inhibition Data, E. coli (E. coli; Conc. 1.6, well 9, M9 media): 0.4
Broad Spectrum Bacterial Growth Inhibition Data, E. coli (E. coli; Conc. 3.1, well 10, M9 media): 0.2
Broad Spectrum Bacterial Growth Inhibition Data, E. coli (E. coli; Conc. 6.3, well 11, M9 media): 0.2
Broad Spectrum Bacterial Growth Inhibition Data, E. coli (E. coli; Conc. 12.5, well 12, M9 media): 0.2
Broad Spectrum Bacterial Growth Inhibition Data, P. aeruginosa (P. aeruginosa; Conc. 0.0, well 4, M9 media): 1.1
Broad Spectrum Bacterial Growth Inhibition Data, P. aeruginosa (P. aeruginosa; Conc. 0.1, well 5, M9 media): 1.0
Broad Spectrum Bacterial Growth Inhibition Data, P. aeruginosa (P. aeruginosa; Conc. 0.2, well 6, M9 media): 1.0
Broad Spectrum Bacterial Growth Inhibition Data, P. aeruginosa (P. aeruginosa; Conc. 0.4, well 7, M9 media): 1.0
Broad Spectrum Bacterial Growth Inhibition Data, P. aeruginosa (P. aeruginosa; Conc. 0.8, well 8, M9 media): 1.0
Broad Spectrum Bacterial Growth Inhibition Data, P. aeruginosa (P. aeruginosa; Conc. 1.6, well 9, M9 media): 1.0
Broad Spectrum Bacterial Growth Inhibition Data, P. aeruginosa (P. aeruginosa; Conc. 3.1, well 10, M9 media): 1.0
Broad Spectrum Bacterial Growth Inhibition Data, P. aeruginosa (P. aeruginosa; Conc. 6.3, well 11, M9 media): 0.1
Broad Spectrum Bacterial Growth Inhibition Data, P. aeruginosa (P. aeruginosa; Conc. 12.5, well 12, M9 media): 0.1
